Test results published in ChEMBL document CHEMBL3244224, “Synthesis and central nervous system activity of 2-arylidene-4-aminoalkyl-2H-1,4-benzoxazin-3(4H)-ones and related compounds” (J Med Chem, 1977).
Active and inactive are the calls of the source. No cut-off for these calls is given here.

What was measured:
[1] = tested on: Rattus norvegicus; experiment: Central nervous system activity in ip dosed rat assessed as dose required to cause decreased reflex action by measuring decreased grip strength; format: functional
[2] = tested on: Rattus norvegicus; experiment: Central nervous system activity in ip dosed rat assessed as dose required to cause depression by measuring decreased motor activity; format: functional
[3] = (§1) Antagonist activity at dopamine receptor in Sprague-Dawley rat olfactory tubercles assessed as inhibition of adenylate cyclase activity after 5 mins; format: tissue-based, Olfactory tubercle; conditions: read-out: I50
[4] = (§2) Antagonist activity at dopamine receptor in Sprague-Dawley rat olfactory tubercles assessed as inhibition of dopamine-induced adenylate cyclase activity after 5 mins; format: tissue-based, Olfactory tubercle; conditions: read-out: I50
[5] = species on record: Rattus norvegicus; experiment: as §1; format: tissue-based; conditions: Olfactory tubercle
[6] = species on record: Rattus norvegicus; experiment: Antagonist activity at dopamine receptor in Sprague-Dawley rat olfactory tubercles assessed as inhibition of adenylate cyclase activity at 100 uM after 5 mins; format: tissue-based; conditions: Olfactory tubercle
[7] = species on record: Rattus norvegicus; experiment: Antagonist activity at dopamine receptor in Sprague-Dawley rat olfactory tubercles assessed as inhibition of dopamine-induced adenylate cyclase activity at 100 uM after 5 mins; format: tissue-based; conditions: Olfactory tubercle
[8] = species on record: Rattus norvegicus; experiment: as §2; format: tissue-based; conditions: Olfactory tubercle
[9] = species on record: Rattus norvegicus; experiment: Antagonist activity at dopamine receptor in Sprague-Dawley rat olfactory tubercles assessed as inhibition of adenylate cyclase activity at 10 uM after 5 mins; format: tissue-based; conditions: Olfactory tubercle

Compound | ED [1] [mg/kg] | ED [2] [mg/kg] | IC50 [3] [µM] | IC50 [4] [µM] | I50 [5] | inhibition [6] [%] | inhibition [7] [%] | I50 [8] | inhibition [9] [%]
CN1CCN(CCCN2C(=O)C(Cc3ccccc3)Oc3ccccc32)CC1.Cl (stereo not given) | 50 | >200 |  |  |  |  |  |  | 
CN1CCN(CCCN2C(=O)/C(=C/c3ccccc3)Oc3ccccc32)CC1.Cl | 12.5 | 50 | 450 | 35 |  |  |  |  | 
CN1CCN(CCCN2C(=O)/C(=C/c3ccccc3)Oc3ccc(Cl)cc32)CC1 | >200 | >200 | > 500 | > 500 |  |  |  |  | 
CN(C)CCCN1C(=O)C(Cc2ccccc2)Oc2ccc(Cl)cc21.Cl (stereo not given) | 100 | >200 |  |  |  |  |  |  | 
O=C1Nc2ccccc2O/C1=C\c1ccccc1 | >200 | >200 |  |  | inactive | < 10 | < 10 | inactive | 
CN(C)CCN1C(=O)/C(=C/c2ccccc2)Oc2ccccc21.Cl | 50 | 50 | > 100 | 100 |  |  |  |  | 
C[N+](C)(C)CCCN1C(=O)/C(=C/c2ccccc2)Oc2ccccc21.[Cl-] | 50 | 50 | 1000 | 650 |  |  |  |  | 
CN(C)CCCN1C(=O)/C(=C/c2cccs2)Oc2ccccc21.Cl | 100 | 100 | > 200 | 56 |  |  |  |  | 
CN1CCN(C2=Nc3cc(Cl)ccc3Nc3ccccc32)CC1 [CLOZAPINE] |  |  |  | 6 | inactive | < 10 |  |  | 
OCCN1CCN(CCCN2c3ccccc3Sc3ccc(C(F)(F)F)cc32)CC1 [FLUPHENAZINE] |  |  |  | 0.5 | inactive |  |  |  | < 10
CN(C)CCCN1C(=O)C(Cc2ccccc2)Oc2ccccc21.Cl (stereo not given) | 50 | 100 |  |  |  |  |  |  | 
CN(C)CCCN1C(=O)/C(=C/c2ccc(Cl)cc2)Oc2ccccc21.Cl | 100 | 100 | 450 | 30 |  |  |  |  | 
Cl.O=C1/C(=C/c2ccccc2)Oc2ccccc2N1CCN1CCOCC1 | >200 | >200 |  |  | inactive | < 10 | < 10 | inactive | 
Cl.O=C1/C(=C/c2ccccc2)Oc2ccccc2N1CCCN1CCN(c2ccccc2)CC1 | 100 | 100 |  |  | inactive | < 10 | < 10 | inactive | 
CCN(CC)CCCN1C(=O)/C(=C/c2ccccc2)Oc2ccccc21.Cl | 12.5 | 50 | > 100 | 60 |  |  |  |  | 
CCCC(C)(COC(N)=O)COC(N)=O [MEPROBAMATE] | 25 | 50 |  |  |  |  |  |  | 
CN(C)CCN1C(=O)C(Cc2ccccc2)Oc2ccccc21.Cl (stereo not given) | 200 | >200 |  |  |  |  |  |  | 
CN(C)CCCN1C(=O)/C(=C/c2ccccc2)Oc2ccccc21.Cl | 25 | 25 | 600 | 33 |  |  |  |  | 
CN(C)CCCCN1C(=O)/C(=C/c2ccccc2)Oc2ccccc21.Cl | 50 | >200 | > 200 | 80 |  |  |  |  | 
Cl.O=C1/C(=C/c2ccccc2)Oc2ccccc2N1CCCN1CCN(CO)CC1 | 100 | 100 | > 400 | 54 |  |  |  |  | 
CN(C)CCCN1C(=O)/C(=C/c2ccccc2Cl)Oc2ccccc21.Cl | 100 | >200 | 170 | 30 |  |  |  |  | 
COc1ccc2c(c1)N(CCCN(C)C)C(=O)/C(=C/c1ccccc1)O2.Cl | >200 | >200 | > 100 | 60 |  |  |  |  | 
CN(C)CCCN1C(=O)/C(=C/c2ccccc2)Oc2ccc(Cl)cc21.Cl | 200 | >200 | > 100 | 100 |  |  |  |  | 
Cc1ccc2c(c1)N(CCCN(C)C)C(=O)/C(=C/c1ccccc1)O2.O=C(O)CCC(=O)O | 100 | 100 | 450 | 15 |  |  |  |  | 
